How the values were obtained:
[1] = biological target: T1, CYP1A2 (Homo sapiens, UniProt P05177); assay: CYP1A2 inhibition, probe/drug metabolism in human liver microsomes (LC-MS/MS); conditions: for activity at 30 min: Residual activity (%) CYP1A2, HLM 0.5 mg/mL
T1 sequence (P05177 1-516): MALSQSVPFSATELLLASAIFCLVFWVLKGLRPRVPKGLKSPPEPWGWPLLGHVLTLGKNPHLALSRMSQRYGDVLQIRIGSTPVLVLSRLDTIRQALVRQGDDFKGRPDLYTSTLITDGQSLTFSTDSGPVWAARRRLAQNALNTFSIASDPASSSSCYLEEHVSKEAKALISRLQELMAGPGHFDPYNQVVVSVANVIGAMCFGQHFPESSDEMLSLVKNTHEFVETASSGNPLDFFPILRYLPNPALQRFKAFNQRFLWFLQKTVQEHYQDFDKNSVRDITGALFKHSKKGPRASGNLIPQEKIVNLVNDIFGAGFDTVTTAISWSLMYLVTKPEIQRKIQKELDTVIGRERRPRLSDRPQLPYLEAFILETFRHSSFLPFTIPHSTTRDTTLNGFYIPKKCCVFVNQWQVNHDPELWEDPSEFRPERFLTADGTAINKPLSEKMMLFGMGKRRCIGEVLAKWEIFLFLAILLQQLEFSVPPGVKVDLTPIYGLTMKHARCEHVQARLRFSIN
Method: (§1) The total volume of the in vitro metabolic incubation system is 200 μL. The probe substrate concentration in the system is shown in Supplementary Table S1. […] The reaction sample was preheated in a constant temperature mixer at 37°C. Then NADP^+ was added to the system to initiate the reaction. The reaction time is 30 min, and 100 μL acetonitrile will be added on time to quickly terminate the reaction, followed by centrifugation at 4°C and 20,000 g for 20 min. The supernatant was analyzed using liquid chromatography tandem mass spectrometry (LC-MS/MS), and the activity of CYP enzymes was evaluated by the generation of probe metabolites. The mass spectrometry information of probe substrates is shown in Supplementary Table S3.
(§2) The isolated triterpenoids (1–66) were used to establish a compounds library. The inhibitory effects of 66 triterpenoids from G. lucidum on seven subtypes of CYP enzymes (CYP1A2, 2A6, 2D6, 2B6, 2C9, 2C19, 3A4) were evaluated followed the above-mentioned experimental procedures.
(§3) For 16 clinical drugs metabolized by CYP enzymes, potential DDI studies were conducted on triterpenoids (6, 25) of G. lucidum, and IC50 values were measured.
(§4) Clinical drugs: Phenacetin, melatonin, clozapine and riluzole are metabolized by CYP1A2. Bupropion, artemisinin, efavirenz and sertraline are metabolized by CYP2B6. Diclofenac, valsartan, glimepiride and glibenclamide are metabolized by CYP2C9. Midazolam, imatinib, simvastatin and diltiazem are metabolized by CYP3A4.
(§5) Table S1. The information of probes for CYPs activity assay
(§6) Table S2. Information of clinical drugs

[2] = biological target: CYP2D6 (Homo sapiens, UniProt P10635); assay: CYP2D6 inhibition, dextromethorphan probe in human liver microsomes; conditions: human, human liver microsomes, pH 7.4, probe dextromethorphan 5 μM, Residual activity (%) CYP2D6, HLM 0.5 mg/mL
Sequence of CYP2D6 (P10635 whole entry): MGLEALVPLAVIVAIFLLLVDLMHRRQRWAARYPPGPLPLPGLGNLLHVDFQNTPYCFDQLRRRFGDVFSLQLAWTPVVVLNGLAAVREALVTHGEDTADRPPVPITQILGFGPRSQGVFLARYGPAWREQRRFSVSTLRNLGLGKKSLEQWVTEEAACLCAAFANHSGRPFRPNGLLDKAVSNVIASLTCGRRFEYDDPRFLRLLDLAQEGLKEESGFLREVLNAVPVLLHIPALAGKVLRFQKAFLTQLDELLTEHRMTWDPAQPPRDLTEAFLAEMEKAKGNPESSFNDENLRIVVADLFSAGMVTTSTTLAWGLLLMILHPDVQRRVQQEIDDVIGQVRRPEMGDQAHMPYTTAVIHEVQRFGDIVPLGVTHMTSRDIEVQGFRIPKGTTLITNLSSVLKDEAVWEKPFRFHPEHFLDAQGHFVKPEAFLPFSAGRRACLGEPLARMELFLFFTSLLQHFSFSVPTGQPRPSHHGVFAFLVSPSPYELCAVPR
Method: as §1, §2, §5

[3] = biological target: CYP3A4 (Homo sapiens, UniProt P08684); assay: CYP3A4 inhibition, probe/drug metabolism in human liver microsomes; conditions: human, human liver microsomes, pH 7.4, probe midazolam 5 μM, Residual activity (%) CYP3A4, HLM 0.5 mg/mL, midazolam 5 μM, 30 min
Sequence of CYP3A4 (P08684 whole entry): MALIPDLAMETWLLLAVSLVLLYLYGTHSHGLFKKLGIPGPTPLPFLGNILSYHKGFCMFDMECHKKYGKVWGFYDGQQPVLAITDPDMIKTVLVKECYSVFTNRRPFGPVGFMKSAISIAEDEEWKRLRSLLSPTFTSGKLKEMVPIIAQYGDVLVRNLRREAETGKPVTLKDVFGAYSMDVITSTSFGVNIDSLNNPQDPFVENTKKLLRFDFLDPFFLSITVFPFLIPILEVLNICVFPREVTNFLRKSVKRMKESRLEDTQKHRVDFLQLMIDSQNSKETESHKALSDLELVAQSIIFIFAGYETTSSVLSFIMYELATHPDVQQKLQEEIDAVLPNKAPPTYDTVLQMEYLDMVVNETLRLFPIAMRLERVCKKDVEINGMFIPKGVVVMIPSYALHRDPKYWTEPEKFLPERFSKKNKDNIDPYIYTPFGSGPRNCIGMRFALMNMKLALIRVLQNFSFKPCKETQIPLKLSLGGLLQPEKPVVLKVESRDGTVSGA
Method: as §1, §2, §3, §4, §5, §6

[4] = biological target: T2, CYP2A6 (Homo sapiens, UniProt P11509); assay: CYP2A6 inhibition, coumarin probe in human liver microsomes; conditions: human, human liver microsomes, pH 7.4, probe coumarin 2 μM, Residual activity (%) CYP2A6, HLM 0.5 mg/mL
T2 sequence (P11509 1-494): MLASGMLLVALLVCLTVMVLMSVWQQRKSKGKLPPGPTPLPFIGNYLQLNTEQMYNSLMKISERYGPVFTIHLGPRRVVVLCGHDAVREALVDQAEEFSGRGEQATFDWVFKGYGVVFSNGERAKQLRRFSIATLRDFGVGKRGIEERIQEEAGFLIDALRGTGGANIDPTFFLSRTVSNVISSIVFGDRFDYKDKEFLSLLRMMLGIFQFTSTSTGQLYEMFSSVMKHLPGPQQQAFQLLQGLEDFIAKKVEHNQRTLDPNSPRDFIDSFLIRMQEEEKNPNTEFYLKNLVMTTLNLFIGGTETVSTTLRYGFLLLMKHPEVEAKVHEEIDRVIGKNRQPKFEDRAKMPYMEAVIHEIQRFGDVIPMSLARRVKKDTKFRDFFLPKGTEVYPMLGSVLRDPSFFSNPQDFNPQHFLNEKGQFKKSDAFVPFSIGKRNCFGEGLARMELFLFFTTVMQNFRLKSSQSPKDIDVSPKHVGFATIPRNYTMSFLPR
Method: as §1, §2, §5

[5] = biological target: T3, CYP2B6 (Homo sapiens, UniProt P20813); assay: CYP2B6 inhibition, probe/drug metabolism in human liver microsomes; conditions: human, human liver microsomes, pH 7.4, probe bupropion 75 μM, Residual activity (%) CYP2B6, HLM 0.5 mg/mL, bupropion 75 μM, 30 min
T3 sequence (P20813 1-491): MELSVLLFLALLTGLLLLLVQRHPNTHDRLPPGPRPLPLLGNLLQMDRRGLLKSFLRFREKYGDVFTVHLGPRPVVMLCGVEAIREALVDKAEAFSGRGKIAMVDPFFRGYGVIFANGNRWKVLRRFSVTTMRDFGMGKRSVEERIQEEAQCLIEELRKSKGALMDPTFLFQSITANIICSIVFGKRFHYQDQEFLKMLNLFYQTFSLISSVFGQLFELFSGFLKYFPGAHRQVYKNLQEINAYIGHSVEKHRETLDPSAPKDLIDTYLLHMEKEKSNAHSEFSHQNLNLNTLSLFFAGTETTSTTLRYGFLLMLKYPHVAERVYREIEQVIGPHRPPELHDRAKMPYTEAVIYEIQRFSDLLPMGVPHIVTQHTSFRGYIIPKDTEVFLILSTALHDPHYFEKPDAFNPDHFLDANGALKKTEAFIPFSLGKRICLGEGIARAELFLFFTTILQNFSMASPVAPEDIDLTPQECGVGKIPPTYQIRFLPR
Method: as §1, §2, §3, §4, §5, §6

[6] = biological target: CYP2C9 (Homo sapiens, UniProt P11712); assay: CYP2C9 inhibition, probe/drug metabolism in human liver microsomes; conditions: human, human liver microsomes, pH 7.4, probe diclofenac 4 μM, Residual activity (%) CYP2C9, HLM 0.5 mg/mL, diclofenac 4 μM, 30 min
Sequence of CYP2C9 (P11712 whole entry): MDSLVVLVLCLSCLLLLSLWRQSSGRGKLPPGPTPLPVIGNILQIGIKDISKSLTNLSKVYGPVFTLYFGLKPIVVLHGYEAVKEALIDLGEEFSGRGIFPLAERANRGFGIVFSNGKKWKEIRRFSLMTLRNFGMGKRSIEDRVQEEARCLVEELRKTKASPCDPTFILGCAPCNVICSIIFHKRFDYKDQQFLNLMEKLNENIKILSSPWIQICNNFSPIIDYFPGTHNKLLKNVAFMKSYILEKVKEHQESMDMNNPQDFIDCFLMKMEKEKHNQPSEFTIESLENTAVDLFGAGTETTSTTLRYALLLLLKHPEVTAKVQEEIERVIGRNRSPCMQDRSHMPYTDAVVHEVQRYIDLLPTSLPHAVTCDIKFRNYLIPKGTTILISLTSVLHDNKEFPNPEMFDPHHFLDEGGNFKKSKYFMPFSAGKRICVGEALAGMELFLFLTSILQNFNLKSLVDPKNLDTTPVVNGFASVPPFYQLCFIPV
Method: as §1, §2, §3, §4, §5, §6

[7] = biological target: CYP2C19 (Homo sapiens, UniProt P33261); assay: CYP2C19 inhibition, S-mephenytoin probe in human liver microsomes; conditions: human, human liver microsomes, pH 7.4, probe S-mephenytoin 50 μM, Residual activity (%) CYP2C19, HLM 0.5 mg/mL, S-mephenytoin 50 μM, 30 min
Sequence of CYP2C19 (P33261 whole entry): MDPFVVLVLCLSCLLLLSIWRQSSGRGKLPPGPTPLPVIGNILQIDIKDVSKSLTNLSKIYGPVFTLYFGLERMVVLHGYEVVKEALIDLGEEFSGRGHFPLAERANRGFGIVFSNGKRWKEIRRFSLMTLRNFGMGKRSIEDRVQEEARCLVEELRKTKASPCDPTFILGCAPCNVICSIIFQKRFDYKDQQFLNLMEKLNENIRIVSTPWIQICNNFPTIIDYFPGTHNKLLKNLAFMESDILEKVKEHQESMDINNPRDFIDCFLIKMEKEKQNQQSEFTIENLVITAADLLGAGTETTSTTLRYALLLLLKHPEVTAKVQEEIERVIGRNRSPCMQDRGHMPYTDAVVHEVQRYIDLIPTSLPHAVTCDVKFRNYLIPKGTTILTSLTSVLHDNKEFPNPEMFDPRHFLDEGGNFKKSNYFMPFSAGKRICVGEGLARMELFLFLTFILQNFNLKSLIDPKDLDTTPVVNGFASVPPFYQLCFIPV
Method: as §1, §2, §5

[8] = IC50 against CYP 1A2, substrate phenacetin 40 μM, HLM
[9] = human, human liver microsomes, pH 7.4, probe phenacetin 40 μM, phenacetin 40 μM, 30 min

`CC(=O)OC1C(=O)C2=C(C(O)CC3C2(C)CCC(O)C3(C)C)C2(C)C(=O)CC(C(C)=CC(=O)CC(C)C(=O)O)C12C` (stereo not drawn) [Compound 7] was tested, and the IC50 [1, 8] was 12.8 ± 1.47 µM, the activity at 30 min [1, 9] was 32.5 ± 1% and the activity at 30 min [2] was 104 ± 4.79%. The activity at 30 min [3] was 94.6 ± 1.15%, the activity at 30 min [4] was 88.05 ± 0.74% and the activity at 30 min [5] was 90.6 ± 2.12%. It also gave an activity at 30 min [6] of 90 ± 1.41% and an activity at 30 min [7] of 74.81 ± 0.08%.

Work on `CC(CC(=O)CC(C)C1CC(=O)C2(C)C3=C(C(=O)CC12C)C1(C)CCC(=O)C(C)(CO)C1CC3O)C(=O)O` (stereo not drawn) [Compound 8] yielded an IC50 [1, 8] of 11.3 ± 0.31 µM, an activity at 30 min [1, 9] of 30.2 ± 3.05% and an activity at 30 min [2] of 76.9 ± 0.9%. It also gave an activity at 30 min [3] of 90.8 ± 3.82%, an activity at 30 min [4] of 79.1 ± 0.81% and an activity at 30 min [5] of 91.6 ± 8.64%. The activity at 30 min [6] was 94.8 ± 5.64% and the activity at 30 min [7] was 68.6 ± 7.25%.

With `CC(=O)OC1C(=O)C2=C(C(=O)CC3C(C)(C)C(=O)CCC23C)C2(C)C(=O)CC(C(C)CC(=O)CC(C)C(=O)O)C12C` (stereo not drawn) [Compound 9] the “Residual activity (%) CYP1A2” value ([1]; HLM 0.5 mg/mL, phenacetin 40 μM, 30 min) was 89.44±0.96%, the activity at 30 min [2] was 94 ± 5.67% and the activity at 30 min [3] was 93.7 ± 4.04%. The activity at 30 min [4] was 91.5 ± 2.1%, the activity at 30 min [5] was 94.3 ± 1.83% and the activity at 30 min [6] was 77 ± 5.67%. For the same molecule, the activity at 30 min [7] was 105 ± 6.46%.

In the case of `CC(=CC(=O)CC(C)C(=O)O)C1CC(=O)C2(C)C3=C(C(=O)C(O)C12C)C1(C)CCC(O)C(C)(C)C1CC3=O` (stereo not drawn) [Compound 17], the IC50 [1, 8] is reported as 21.8 ± 1.15 µM, the activity at 30 min [1, 9] is reported as 54.4 ± 8.91% and the activity at 30 min [2] is reported as 99.4 ± 3.9%. It also gave an activity at 30 min [3] of 97.6 ± 2.29%, an activity at 30 min [4] of 91.89 ± 0.88% and an activity at 30 min [5] of 76.6 ± 7.68%. The activity at 30 min [6] was 90 ± 1.36% and the activity at 30 min [7] was 85.5 ± 2.57%.

Work on `CC(=O)OC1C(=O)C2=C(C(=O)CC3C(C)(C)C(=O)CCC23C)C2(C)C(=O)CC(C(C)CC(O)C=C(C)C(=O)O)C12C` (stereo not drawn) [Compound 31] yielded an IC50 at 30 min ([1]; human, human liver microsomes, pH 7.4, probe phenacetin 40 μM, IC50 against CYP 1A2, substrate phenacetin 40 μM, HLM) of 29 ± 6.91 µM, an activity at 30 min [1, 9] of 53.7 ± 1.44% and an activity at 30 min [2] of 103 ± 3.3%. It also gave an activity at 30 min [3] of 104 ± 1.72%, an activity at 30 min [4] of 86.17 ± 0.44% and an activity at 30 min [5] of 71.2 ± 4.24%. The activity at 30 min [6] was 80.99 ± 0.51% and the activity at 30 min [7] was 94.8 ± 4.46%.
